Laboratory results taken from PMC3775947 (Clinical lymphoma, myeloma & leukemia, 2013).

Tests used:
[1] = Plasma pharmacokinetics of barasertib, barasertib-hQPA and LDAC; details: for AUC0–EOI, barasertib-hQPA / AUC0–t, barasertib-hQPA / Css, barasertib-hQPA: geometric mean (CV%)
patients with AML = details: LDAC or decitabine alone; cited from earlier work
[2] = plasma, barasertib 800 mg + LDAC 400 mg, n=6
[3] = plasma, barasertib 1000 mg + LDAC 400 mg, n=13
[4] = plasma, barasertib 1200 mg + LDAC 400 mg, n=3

SMILES | Steady-state plasma concentrations observed from, after start of infusion ([1]; 7-day continuous iv infusion of barasertib, Day 1, maintained until EOI) [h] | Accumulation ([1]; 28-day cycles) | Barasertib-hQPA exposure (AUC and Css) versus barasertib dose ([1]; 800-1200 mg, trend, low patient numbers) | Clearance rate, geometric mean ([1]; barasertib 1000 mg cohort, range 23.4–43.3) [L/h] | Volume of distribution at steady state, geometric mean ([1]; barasertib 1000 mg cohort, range 509–1050) [L] | Exposure to barasertib-hQPA during the infusion relative to that of barasertib ([1]; during 7-day infusion) | Terminal phase t½ ([1]; following EOI, biphasic elimination) [h] | Detected in samples post EOI up to and including ([1]; plasma, LLOQ 0.25 ng/mL) [h] | AUC0–EOI, barasertib-hQPA [1, 2] | AUC0–t, barasertib-hQPA [1, 2] | Css, barasertib-hQPA [1, 2] | AUC0–EOI, barasertib-hQPA [1, 3] | AUC0–t, barasertib-hQPA [1, 3] | Css, barasertib-hQPA [1, 3] | AUC0–EOI, barasertib-hQPA [1, 4] | AUC0–t, barasertib-hQPA [1, 4] | Css, barasertib-hQPA [1, 4] | Rates of response (patients with AML) [%]
CCN(CCO)CCCOc1ccc2c(Nc3cc(CC(=O)Nc4cccc(F)c4)[nH]n3)ncnc2c1 [Barasertib-hQPA, barasertib hydroxy-QPA] | 24 | Minimal accumulation | increase more than proportionally | 30.5 | 713 | approximately four-fold | 84 to 108 | ≤ 336 | 23240 (14.9) ng.h/mL | 24040 (3.4) ng.h/mL | 147.3 (13.9) ng/mL | 26860 (29.8) ng.h/mL | 32840 (23.1) ng.h/mL | 170.2 (27.4) ng/mL | 37510 (26.6) ng.h/mL | 41850 (28.2) ng.h/mL | 249.2 (21.0) ng/mL | –
Nc1ncn([C@H]2C[C@H](O)[C@@H](CO)O2)c(=O)n1 [decitabine] | – | – | – | – | – | – | – | – | – | – | – | – | – | – | – | – | – | ~20
